Target: Acetylcholinesterase (Homo sapiens, UniProt P22303)
Experiment: Inhibitory activity against acetylcholinesterase in human blood
Type: tissue-based

Acetylcholinesterase, sequence (P22303 whole entry): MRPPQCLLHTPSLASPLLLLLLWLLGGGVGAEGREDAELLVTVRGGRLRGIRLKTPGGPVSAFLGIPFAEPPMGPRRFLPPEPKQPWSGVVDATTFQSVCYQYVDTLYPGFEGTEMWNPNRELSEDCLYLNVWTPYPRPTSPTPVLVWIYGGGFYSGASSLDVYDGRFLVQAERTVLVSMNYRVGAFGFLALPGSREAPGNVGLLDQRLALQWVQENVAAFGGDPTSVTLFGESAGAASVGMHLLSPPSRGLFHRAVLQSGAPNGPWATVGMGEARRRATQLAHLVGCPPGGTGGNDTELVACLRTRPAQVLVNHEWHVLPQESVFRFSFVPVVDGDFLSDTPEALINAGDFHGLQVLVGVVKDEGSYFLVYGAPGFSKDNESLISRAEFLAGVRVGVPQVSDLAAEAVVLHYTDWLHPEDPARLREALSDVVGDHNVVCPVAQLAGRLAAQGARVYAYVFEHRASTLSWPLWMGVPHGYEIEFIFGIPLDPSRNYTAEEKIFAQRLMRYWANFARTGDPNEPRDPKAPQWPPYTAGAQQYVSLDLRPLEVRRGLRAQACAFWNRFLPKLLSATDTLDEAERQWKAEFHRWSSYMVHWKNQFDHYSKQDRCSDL

CCCN1CCCC(c2cccc(OC(=O)NC(C)C)c2)C1 (stereo unspecified)
IC50: 10 µM

From ChEMBL document CHEMBL1123940, “Carbamate ester derivatives as potential prodrugs of the presynaptic dopamine autoreceptor agonist (-)-3-(3-hydroxyphenyl)-N-propylpiperidine” (J Med Chem, 1987)
